What was measured:
yeast OLE1 = biological target: T1, yeast OLE1 (Saccharomyces cerevisiae, UniProt P21147, L450T/T449L); assay: Growth of yeast surviving solely on yeast OLE1; type: cell-based; settings: 24 h
T1 construct: expressed in transfected cells; host or cells: S. cerevisiae ole1Δ strain (W303 pdr1Δ pdr3Δ background), plasmid pRS316 with TDH3 promoter and CYC1 terminator
Description: (§1) To generate yeast strains expressing SCD1 or SCD5 as the sole desaturase, the human SCD1 and SCD5 genes were cloned from cDNAs (Harvard PlasmID database Clone ID HsCD00340237 for SCD1 and HsCD00342695 for SCD5) into yeast plasmid pRS316 (ATCC 77145) between the yeast TDH3 promoter and the CYC1 terminator. The coding sequence of yeast OLE1 was also cloned into this plasmid). These clones were then transformed into the ole1d strain and plated on CSM-Ura media (CSM lacking uracil) with 2% glucose (w/v) and independent colonies were isolated and amplified.
(§2) For experiments using a plasmid-borne copy of Ole1, SCD1, or SCD5 (FIGS. 3B, 6, and 7), media lacking uracil (SX-Ura, where X is glucose, raffinose, or galactose), was used for all steps of the compound profiling protocol to ensure its maintenance throughout the assay.
(§3) After yeast delivery, assay plates were incubated under humidified conditions at 30° C. for 24 to 40 h. ApoE4 rescue experiments were stopped at 24 h, aSyn experiments at 40 h, Ole1 at 24 h, and SCD1/SCD5 at 40 h. The growth of yeast was monitored by reading the OD600 of each well using a microplate reader (Perkin Elmer EnVision™). For model rescue experiments, raw data were processed by background subtracting and calculating a fold-change relative to DMSO control [(EXP-0.035)/(DMSO-0.035)—where 0.035 is the OD600 contributed by an empty well containing 30 μL of media alone]. For growth inhibition of wild-type cells, raw data were processed by background subtracting and converting values to a percent of the nontreated condition for that strain [(EXP-0.035)/(DMSO-0.035)×100%].

human SCD1 = biological target: T2, human SCD1 (Homo sapiens, UniProt O00767); assay: Growth of humanized yeast surviving solely on human SCD1; type: cell-based; settings: for half-maximal inhibitory concentration (IC50), SCD1 humanized strain: growth inhibition
T2 construct: host or cells: S. cerevisiae ole1Δ strain (W303 pdr1Δ pdr3Δ background), plasmid pRS316 with TDH3 promoter and CYC1 terminator
T2 sequence (O00767 1-359): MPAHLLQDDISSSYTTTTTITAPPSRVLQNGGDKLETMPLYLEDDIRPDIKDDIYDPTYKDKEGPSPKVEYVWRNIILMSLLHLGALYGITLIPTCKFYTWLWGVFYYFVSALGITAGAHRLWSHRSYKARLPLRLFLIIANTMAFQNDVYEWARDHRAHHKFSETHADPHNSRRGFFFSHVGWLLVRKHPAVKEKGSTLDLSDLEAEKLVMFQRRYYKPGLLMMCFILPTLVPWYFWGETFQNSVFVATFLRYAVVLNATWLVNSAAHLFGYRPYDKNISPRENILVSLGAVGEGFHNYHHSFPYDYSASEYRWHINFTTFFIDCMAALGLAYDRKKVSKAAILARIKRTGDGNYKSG
Description: The coding sequence of yeast OLE1 was also cloned into this plasmid). These clones were then transformed into the ole1d strain and plated on CSM-Ura media (CSM lacking uracil) with 2% glucose (w/v) and independent colonies were isolated and amplified.
as §2
After yeast delivery, assay plates were incubated under humidified conditions at 30° C. for 24 to 40 h. ApoE4 rescue experiments were stopped at 24 h, aSyn experiments at 40 h, Ole1 at 24 h, and SCD1/SCD5 at 40 h. The growth of yeast was monitored by reading the OD600 of each well using a microplate reader (Perkin Elmer EnVision™).

human SCD5 = biological target: T3, human SCD5 (Homo sapiens, UniProt Q86SK9); assay: Growth of humanized yeast surviving solely on human SCD5; type: cell-based; settings: for half-maximal inhibitory concentration (IC50), SCD5 humanized strain: growth inhibition
T3 construct: host or cells: S. cerevisiae ole1Δ strain (W303 pdr1Δ pdr3Δ background), plasmid pRS316 with TDH3 promoter and CYC1 terminator
T3 sequence (Q86SK9 1-330): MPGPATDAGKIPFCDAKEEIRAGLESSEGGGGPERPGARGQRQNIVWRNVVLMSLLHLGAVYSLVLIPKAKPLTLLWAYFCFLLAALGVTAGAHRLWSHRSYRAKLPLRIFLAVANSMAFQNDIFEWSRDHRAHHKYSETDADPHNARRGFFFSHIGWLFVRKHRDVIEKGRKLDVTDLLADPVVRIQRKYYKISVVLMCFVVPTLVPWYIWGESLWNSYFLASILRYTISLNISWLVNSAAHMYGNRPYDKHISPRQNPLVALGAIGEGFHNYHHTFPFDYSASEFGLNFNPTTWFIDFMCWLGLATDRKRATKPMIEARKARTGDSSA
Description: as §1, §2, §3

[1] = test system: cellular fatty acid desaturase activity (Ole1); assay: Quantitative lipid profiling of treated yeast cells by LC-MS/MS; type: cell-based, Saccharomyces cerevisiae
Description: FIGS. 8A-8D are graphs showing that treatment of yeast cells with the 1,2,4-oxadiazole Compound 2 inhibits lipid desaturation. Exponentially-growing wild-type yeast cells were treated with the indicated doses of the 1,2,4-oxadiazole Compound 2 for the indicated times before cellular lysis, lipid extraction, and analysis by global LC-MS/MS profiling. The relative abundance (fraction of total cellular lipid signal) after 1.5 h and 8 h of the most abundant saturated lipid, phosphatidylcholine 26:0, is depicted in FIGS. 8A and 8B, respectively. The relative abundance after 1.5 h and 8 h drug treatment of the most abundant lipid with 2 or more degrees of unsaturation, phosphatidylcholine 16:1; 18:1, is depicted in FIGS. 8C and 8D, respectively.
Overnight cultures of yeast strain W303 pdr1Δ pdr3Δ were diluted into CSM media with 2% (w/v) raffinose, OD600 0.25, and grown for 4 h before resuspending at an OD600 of 0.2 in CSM media with 2% (w/v) galactose and adding Compound 2 or DMSO at the indicated concentrations. Cells were grown for the indicated timepoints before centrifugation, washing once in PBS, and freezing pellets. Lipids were extracted from pellets by resuspending the pellets in 600 μL methanol, 300 μL water, and 400 μL chloroform, followed by cell lysis by vortexing with glass beads for 1 min. Samples were then centrifuged at 10,000×g for 10 min, and the bottom layer that formed (organic/lipids) was moved into a new tube and evaporated. Samples were then analyzed by LC/MS/MS using a Thermo Scientific Q Exactive™ Orbitrap™ coupled to a Dionex UltiMate® 3000 ultra-high performance liquid chromatography system, following the method described in Tafesse et al. PLoS Pathog. 11(10): e1005188, 2015.

ApoE4 = ApoE4 Alzheimer's disease yeast model, rescue of toxicity (OD600 growth); type: cell-based, Saccharomyces cerevisiae; settings: 12-point dose; ApoE4 expression induced
Description: Strain ApoE-mga2Δ was generated by amplifying 1000 base pairs (bp) upstream and downstream of the MGA2 ORF in a strain in which MGA2 was deleted using a G418 (GENETICIN®) resistance cassette (kanMX) (Piotrowski et al. Proc. Natl. Acad. Sci. USA 112(12):E1490-1497, 2015) and transforming the resulting deletion cassette into the ApoE4 strain in the BY4741 (ATCC 201388) genetic background. The ApoE strain is described, for example, in International Patent Application Publication No. WO 2016/040794, which is incorporated herein by reference in its entirety.
Yeast were cultured using standard techniques in complete synthetic media (CSM) and yeast nitrogen base supplemented with 2% (w/v) carbon source (glucose, raffinose, or galactose) to regulate the expression of the toxic disease protein. An initial starter culture was inoculated in 3 mL CSM-Glucose media and incubated overnight in a 30° C. shaker incubator (225 rpm). Saturated morning cultures were then diluted 1:20 in fresh CSM-Raffinose media and grown for 6 h to an OD600 (optical density) of 0.4-0.8 at 30° C. with shaking. […]
(§4) After yeast delivery, assay plates were incubated under humidified conditions at 30° C. for 24 to 40 h. […] The growth of yeast was monitored by reading the OD600 of each well using a microplate reader (Perkin Elmer EnVision™). […]

yeast = assay: Yeast growth inhibition in control / wild-type condition (OD600); type: cell-based, Saccharomyces cerevisiae; settings: ApoE4 strain under non-inducing conditions (raffinose); at concentrations just above Emax of rescue
Description: Strain GMYF was constructed from the ABC16/Green monster strain described in Suzuki et al. Nat. Methods 8(2):159-164, 2011. In this strain, YAP1 was deleted using a HIS3-MX6 cassette, and FLR1 was deleted using a NAT-MX6 cassette using standard methods. The knockout cassettes were PCR-amplified from plasmid templates (see, e.g., Bahler et al. Yeast 14(10):943-951, 1998; Longtine et al. Yeast 14(10):953-961, 1998) and transformed into yeast using lithium acetate-based transformation (Gietz et al. Methods Mol. Biol. 1205:1-12, 2014). The yap1::his3 deletion strain was selected on media lacking histidine and flr1::NAT on plates containing 100 μg/mL nourseothricin. All strains were confirmed by diagnostic PCR. Strain W303 pdr1Δ pdr3Δ was constructed from W303-1A (American Type Culture Collection (ATCC) 208352) by deleting PDR1 and PDR3 with kan-MX6 cassettes separately in MATa and MATa W303a isolates, mating, sporulating, and identifying the double deletion haploids by tetrad dissection and identification of non-parental ditype tetrads. Strain W-erg3 was derived from W303 pdr1 Δ pdr3Δ by deleting SNQ2 with NAT-MX6, YAP1 with HIS3-MX6, and ERG3 with BleMX. […]
as §4

T1 sequence (P21147 whole entry T449L/L450T): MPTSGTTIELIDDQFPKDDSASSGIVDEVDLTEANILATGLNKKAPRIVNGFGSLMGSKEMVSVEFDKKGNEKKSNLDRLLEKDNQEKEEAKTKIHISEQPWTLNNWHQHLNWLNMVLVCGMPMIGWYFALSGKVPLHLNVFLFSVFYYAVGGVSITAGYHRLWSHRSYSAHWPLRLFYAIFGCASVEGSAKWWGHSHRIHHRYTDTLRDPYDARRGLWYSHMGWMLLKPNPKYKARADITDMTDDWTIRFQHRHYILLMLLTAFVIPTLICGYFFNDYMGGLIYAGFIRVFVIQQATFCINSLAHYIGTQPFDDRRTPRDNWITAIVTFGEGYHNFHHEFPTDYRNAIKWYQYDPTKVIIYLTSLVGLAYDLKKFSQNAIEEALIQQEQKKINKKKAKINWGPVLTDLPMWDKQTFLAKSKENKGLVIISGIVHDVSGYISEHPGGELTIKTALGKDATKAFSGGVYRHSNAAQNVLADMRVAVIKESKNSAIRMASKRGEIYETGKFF

Row | Compound | growth of yeast strain expressing Ole1 (percent of DMSO-treated condition) (yeast OLE1) | half-maximal inhibitory concentration (IC50), SCD1 humanized strain (human SCD1) | half-maximal inhibitory concentration (IC50), SCD5 humanized strain (human SCD5) | other results
1 | CNC(=O)c1cccc(NC(=O)N2CCC(Oc3ccccc3Cl)CC2)c1 [Compound A939572] | resistant | low nanomolar | low nanomolar | 
2 | O=C(O)Cn1nnc(-c2cc(N3CCC(Oc4cc(F)ccc4Br)CC3)no2)n1 [MK-8245] | resistant |  | low nanomolar | 
3 | Cc1nn(C)c2cc(-c3noc(C4CCN(C(=O)CNC(=O)c5ccccc5)CC4)n3)ccc12 [Compound 2, N-(2-(4-(3-(1,3-dimethyl-1H-indazol-6-yl)-1,2,4-oxadiazol-5-yl)piperidin-1-yl)-2-oxoethyl)benzamide] |  |  |  | lipid desaturation in yeast cells [1]: inhibited lipid desaturation; decrease in abundance of unsaturated lipid phosphatidylcholine 16:1, 18:1 ([1]; 8 h treatment, wild-type yeast): > 12 fold; increase in abundance of saturated lipid phosphatidylcholine 26:0 ([1]; after 8 h treatment, wild-type yeast): > 300 fold
4 | C[C@@H]1C[C@@H]([C@H](O)CC2CC(=O)NC(=O)C2)C(=O)[C@@H](C)C1 [Cyclohexamide] | inhibited growth of all three strains with the same potency |  |  | growth of SCD1-expressing yeast (percent of DMSO-treated condition) (human SCD1; 40 h): inhibited growth of all three strains with the same potency; growth of SCD5-expressing yeast (percent of DMSO-treated condition) (human SCD5; 40 h): inhibited growth of all three strains with the same potency
5 | Cc1nnc(-c2ccc(N3CCC(Oc4ccccc4C(F)(F)F)CC3)nn2)s1 [MF-438] | resistant | low nanomolar | low nanomolar | 
6 | COc1ccc(-c2noc(C3CCN(C(=O)CNC(=O)c4ccccc4)CC3)n2)cc1OC [Compound 1, N-(2-(4-(3-(3,4-dimethoxyphenyl)-1,2,4-oxadiazol-5-yl)piperidin-1-yl)-2-oxoethyl)benzamide] |  |  |  | rescue in ApoE4 model, dose-response curve (raw OD600) (ApoE4): bell-shaped dose-response curve; growth in control condition (yeast): growth decreased

Reference: patent US10973810B2, “Methods for the treatment of neurological disorders” (Yumanity Therapeutics, Inc., priority 2017, dated 2021)
